Key:
[1] = molecular target: human RIPK1 (Homo sapiens (Human), UniProt Q13546); experiment: KINOMEscan binding assay, human RIPK1; settings: equilibrium dissociation constant
Method: (§1) Binding affinity of the test compounds for human MLKL (full length), mouse MLKL (full length), human RIPK1 and human RIPK3 was determined using the KINOMEscan™ technology developed by DiscoverX (USA; http://www.discoverx.com). The assay was conducted according to manufacturer instructions.
(§2) Kinase assays. For most assays, kinase-tagged T7 phage strains were grown in parallel in 24-well blocks in an E. coli host derived from the BL21 strain. E. coli were grown to log-phase and infected with T7 phage from a frozen stock (multiplicity of infection=0.4) and incubated with shaking at 32° C. until lysis (90-150 minutes). The lysates were centrifuged (6,000×g) and filtered (0.2 μm) to remove cell debris. The remaining kinases were produced in HEK-293 cells and subsequently tagged with DNA for qPCR detection. […] The liganded beads were blocked with excess biotin and washed with blocking buffer (SeaBlock (Pierce), 1% BSA, 0.05% Tween 20, 1 mM DTT) to remove unbound ligand and to reduce non-specific phage binding. […] All reactions were performed in polypropylene 384-well plates in a final volume of 20 μL. […] The kinase concentration in the eluates was measured by qPCR.
(§3) An 11-point 3-fold serial dilution of each test compound was prepared in 100% DMSO at 100× final test concentration and subsequently diluted to 1× in the assay (final DMSO concentration=1%). Most Kos were determined using a compound top concentration=30,000 nM.
(§4) KD for each test compound was calculated with a standard dose-response curve using the Hill equation (equation (1)): […]
(§5) The Hill Slope was set to −1.
(§6) Curves were fitted using a non-linear least square fit with the Levenberg-Marquardt algorithm.

[2] = molecular target: human RIPK3 (Homo sapiens (Human), UniProt Q9Y572); experiment: KINOMEscan binding assay, human RIPK3; settings: equilibrium dissociation constant
Method: as §1, §2, §3, §4, §5, §6

[3] = system: U937 cells; experiment: Counter screen: U937 cell viability without TSQ cocktail (off-target effect); design: species or system human; settings: Homo sapiens, U-937, compound without TSQ cocktail, read-out: Off-target effect (IC50 cell-based assay)
Method: (§7) • Cell Line ID: U937 human histiocytic leukemia cell line. • Cell Concentration (cells/well): Final cell density is 20000 cells per well. • Cell growth medium: HT-RPMI medium+7.4% Fetal Bovine Serum (FBS). Cells are cultured in Corning 150 cm^2 tissue culture flasks with vented caps at 37° C./5% CO2. • Incubation: Plates were incubated at 37° C./5% CO2 in a humidified incubator for 48 hours following addition of compounds and death stimuli (TSQ cocktail). • Compound concentration: 36 μM starting concentration, 1:3 dilution, 10 point • DMSO final concentration (% v/v): 0.3%. Compounds in TSQ Cocktail (T: TNF; S: Smac Mimetic; Q: Q-VD-OPh) and their Final Concentrations: • hTNF-Fc (100 ng/ml)—produced by standard procedures as shown in Bossen et al., J. Biol. Chem., 2006, 281(20), 13964-13971. • Compound A (500 nM) —Smac mimetic, Tetralogic and SYNthesis med chem • Q-VD-OPh (10 μM) —MP Biomedicals
(§8) The cellular assay was carried out according to the following steps: • 1. Each well was prepared by sequential addition of: • a. DMSO (control; columns 1-2 and 23-24) or compound in DMSO—addition was performed using acoustic transfer of nL volumes of stock compound to give final test concentrations of 36, 12, 4, 1.3, 0.44, 0.148, 0.049, 0.016, 0.005 and 0.002 μM. All wells were backfilled with DMSO to a final total volume in the well of 100 nL. • b. Following compound/DMSO addition in step (a), 40 μL of cell suspension (5×10^5 cells/mL) was added to provide a final cell concentration of 20,000 cells per well, and • c. Following cell addition in step (b), 10 μL of 5×TSQ cocktail (except to positive controls; columns 1 and 23) was added to each well. • 2. After 48 hours, plate was removed from the 37° C. incubator and equilibrated to room temperature for 45 minutes. • 3. 15 μL of room temperature CellTitre-Glo2™ (Promega™) was added to each well. • 4. Shook plates for 2 minutes (˜600 rpm) and incubated at room temperature for 15 minutes to allow signal to stabilise. • 5. Read luminescence readout on a plate reader.
(§9) 10 point titration curves were fitted with the 4 parameter logistic nonlinear regression model and the IC50 reported reflect the inflection point of the curve for curve fitting.
(§10) • Assay involving the TSQ cocktail (T: TNF; S: Smac mimetic; Q: Q-VD-OPh): TSQ treatment ensures that cells specifically undergo necroptotic cell death. TNF activates the TNF receptor, Smac mimetic directs the signal away from proinflammatory signaling and toward the RIPK1/RIPK3-mediated cell death pathways, and Q-VD-OPh ensures that the apoptotic response is blocked leaving only the programmed necrosis response. The compounds' activity (solution in DMSO) tested in this TSQ-induced assay was evaluated by determining the number of viable cells in culture by measuring the amount of ATP present as measured by CelltiterGlo. • Counter screen: In parallel, all compounds were tested for their ability to affect cell viability. The same U937 cells were treated with compound in DMSO without the TSQ cocktail. This counter screen enabled evaluation of off-target effects. In this case, cell viability was measured by CelltiterGlo.

[4] = molecular target: human MLKL (full length) (Homo sapiens (Human), UniProt Q8NB16); experiment: KINOMEscan binding assay, human MLKL (full length); settings: equilibrium dissociation constant
Method: as §1, §2, §3, §4, §5, §6

[5] = system: U937 human histiocytic leukemia cell line; experiment: Inhibition of TSQ induced necroptosis in U937 cells (CellTitre-Glo); settings: Homo sapiens, U-937, TSQ cocktail (TNF, Smac mimetic, Q-VD-OPh), 48 hours, read-out: Inhibition of TSQ-induced necroptosis (IC50 cell-based assay)
Method: Cellular Assay: Screening Compounds for Inhibition of TSQ Induced Necroptosis, 384 Well Plate Format.
as §7, §8
Percent viability was calculated for each compound according to equation (2): […]
as §9, §10

human RIPK1, sequence (Q13546 whole entry): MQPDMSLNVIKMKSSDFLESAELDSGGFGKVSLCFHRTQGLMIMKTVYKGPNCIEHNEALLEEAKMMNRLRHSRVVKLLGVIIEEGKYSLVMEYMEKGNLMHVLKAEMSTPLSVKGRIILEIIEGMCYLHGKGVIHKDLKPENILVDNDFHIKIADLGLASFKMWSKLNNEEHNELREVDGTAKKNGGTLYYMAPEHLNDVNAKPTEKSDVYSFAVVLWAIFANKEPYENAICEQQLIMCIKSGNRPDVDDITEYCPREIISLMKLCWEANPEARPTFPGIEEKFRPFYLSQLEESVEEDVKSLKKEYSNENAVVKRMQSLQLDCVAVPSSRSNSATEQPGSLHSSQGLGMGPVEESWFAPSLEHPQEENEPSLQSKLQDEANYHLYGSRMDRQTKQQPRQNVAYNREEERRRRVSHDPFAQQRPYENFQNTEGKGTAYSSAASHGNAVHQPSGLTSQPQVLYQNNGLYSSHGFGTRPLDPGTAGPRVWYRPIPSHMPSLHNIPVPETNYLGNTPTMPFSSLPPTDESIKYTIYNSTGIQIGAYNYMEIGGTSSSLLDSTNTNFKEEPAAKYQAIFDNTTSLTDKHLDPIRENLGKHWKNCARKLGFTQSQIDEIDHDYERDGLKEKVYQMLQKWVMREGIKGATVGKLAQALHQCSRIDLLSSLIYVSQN
human RIPK3, sequence (Q9Y572 whole entry): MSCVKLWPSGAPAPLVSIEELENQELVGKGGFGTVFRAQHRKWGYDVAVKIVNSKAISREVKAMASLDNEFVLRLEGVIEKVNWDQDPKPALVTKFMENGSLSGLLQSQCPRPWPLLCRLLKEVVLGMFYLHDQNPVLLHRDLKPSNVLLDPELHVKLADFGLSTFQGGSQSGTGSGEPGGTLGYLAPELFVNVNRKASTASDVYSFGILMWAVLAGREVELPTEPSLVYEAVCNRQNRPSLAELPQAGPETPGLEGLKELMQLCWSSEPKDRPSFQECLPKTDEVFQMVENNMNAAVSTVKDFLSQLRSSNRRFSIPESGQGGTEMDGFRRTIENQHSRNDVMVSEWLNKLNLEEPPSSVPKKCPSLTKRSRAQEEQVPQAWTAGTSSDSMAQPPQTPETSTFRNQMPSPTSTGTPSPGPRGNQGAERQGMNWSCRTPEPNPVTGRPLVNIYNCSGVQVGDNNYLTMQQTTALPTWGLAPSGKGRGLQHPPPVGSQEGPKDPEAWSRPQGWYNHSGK
human MLKL (full length), sequence (Q8NB16 whole entry): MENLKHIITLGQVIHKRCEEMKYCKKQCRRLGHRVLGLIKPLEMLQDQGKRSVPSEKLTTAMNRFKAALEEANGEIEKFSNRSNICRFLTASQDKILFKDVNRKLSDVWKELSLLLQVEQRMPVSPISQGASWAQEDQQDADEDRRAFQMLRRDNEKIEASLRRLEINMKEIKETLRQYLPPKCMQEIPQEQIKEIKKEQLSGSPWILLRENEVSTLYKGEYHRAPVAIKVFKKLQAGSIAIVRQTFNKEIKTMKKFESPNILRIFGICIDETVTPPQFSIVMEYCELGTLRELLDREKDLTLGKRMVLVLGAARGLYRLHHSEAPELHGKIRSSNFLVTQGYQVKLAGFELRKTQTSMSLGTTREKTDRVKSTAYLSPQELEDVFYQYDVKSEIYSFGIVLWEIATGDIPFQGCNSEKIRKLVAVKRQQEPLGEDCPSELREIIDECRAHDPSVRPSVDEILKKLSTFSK

Compound | Kd [1] [µM] | Kd [2] [µM] | Kd [4] [µM] | IC50 [3] [µM] | IC50 [5] [µM]
Cn1cc(-c2cnc(N)c3c(-c4ccc(NS(=O)(=O)C(F)F)c(OCc5ccc(F)cc5)c4)nn(C)c23)cn1 [Compound 16, N-(4-(4-amino-1-methyl-7-(1-methyl-1H-pyrazol-4-yl)-1H-pyrazolo[4,3-c]pyridin-3-yl)-2-((4-fluorobenzyl)oxy)phenyl)-1,1-difluoromethanesulfonamide] | > 10 | > 10 | < 0.001 | > 10 | 1 to 10
C[C@H](Oc1cc(-c2nn(C)c3c(C4=CCN(C)CC4)cnc(N)c23)ccc1NS(=O)(=O)C(F)F)c1ccc(F)cc1 [Compound 21, (S)-N-(4-(4-amino-1-methyl-7-(1-methyl-1,2,3,6-tetrahydropyridin-4-yl)-1H-pyrazolo[4,3-c]pyridin-3-yl)-2-(1-(4-fluorophenyl)ethoxy)phenyl)-1,1-difluoromethanesulfonamide] | > 10 | > 10 | < 0.001 | > 10 | 1 to 10
C[C@H](Oc1cc(-c2nn(C)c3c(-c4ccnc(C(F)(F)F)c4)cnc(N)c23)ccc1NS(=O)(=O)C(F)F)c1ccc(F)cc1 [Compound 23, (S)-N-(4-(4-amino-1-methyl-7-(2-(trifluoromethyl)pyridin-4-yl)-1H-pyrazolo[4,3-c]pyridin-3-yl)-2-(1-(4-fluorophenyl)ethoxy)phenyl)-1,1-difluoromethanesulfonamide] | > 10 | > 10 | 0.001 to 0.1 | > 10 | 1 to 10
Cc1cc(-c2cnc(N)c3c(-c4ccc(NS(=O)(=O)C(F)F)c(O[C@@H](C)c5ccc(F)cc5)c4)nn(C)c23)ccn1 [Compound 24, (S)-N-(4-(4-amino-1-methyl-7-(2-methylpyridin-4-yl)-1H-pyrazolo[4,3-c]pyridin-3-yl)-2-(1-(4-fluorophenyl)ethoxy)phenyl)-1,1-difluoromethanesulfonamide] | > 10 | > 10 | < 0.001 | > 10 | 0.01 to 1
COc1cc(-c2cnc(N)c3c(-c4ccc(NS(=O)(=O)C(F)F)c(O[C@@H](C)c5ccc(F)cc5)c4)nn(C)c23)ccn1 [Compound 27, (S)-N-(4-(4-amino-7-(2-methoxypyridin-4-yl)-1-methyl-1H-pyrazolo[4,3-c]pyridin-3-yl)-2-(1-(4-fluorophenyl)ethoxy)phenyl)-1,1-difluoromethanesulfonamide] | > 10 | > 10 | 0.001 to 0.1 | > 10 | 0.01 to 1
COc1ccc(-c2cnc(N)c3c(-c4ccc(NS(=O)(=O)C(F)F)c(O[C@@H](C)c5ccc(F)cc5)c4)nn(C)c23)cn1 [Compound 28, (S)-N-(4-(4-amino-7-(6-methoxypyridin-3-yl)-1-methyl-1H-pyrazolo[4,3-c]pyridin-3-yl)-2-(1-(4-fluorophenyl)ethoxy)phenyl)-1,1-difluoromethanesulfonamide] | > 10 | > 10 | < 0.001 | > 10 | 0.01 to 1

Continued, in another order:

Kd [1] [µM] | Kd [2] [µM] | Kd [4] [µM] | Compound | IC50 [3] [µM] | IC50 [5] [µM]
> 10 | > 10 | < 0.001 | COCC(Oc1cc(-c2nn(C)c3c(-c4cnn(C5CCOCC5)c4)cnc(N)c23)ccc1NS(=O)(=O)C(F)F)c1ccc(F)cc1 (racemic) [Compound 102, N-(4-(4-amino-1-methyl-7-(1-(tetrahydro-2H-pyran-4-yl)-1H-pyrazol-4-yl)-1H-pyrazolo[4,3-c]pyridin-3-yl)-2-(1-(4-fluorophenyl)-2-methoxyethoxy)phenyl)-1,1-difluoromethanesulfonamide] | > 10 | 0.01 to 1
> 10 | > 10 | < 0.001 | C[C@H](Oc1cc(-c2nn(C)c3c(-c4cccnc4)cnc(N)c23)ccc1NS(=O)(=O)C(F)F)c1ccc(F)cc1 [Compound 25, (S)-N-(4-(4-amino-1-methyl-7-(pyridin-3-yl)-1H-pyrazolo[4,3-c]pyridin-3-yl)-2-(1-(4-fluorophenyl)ethoxy)phenyl)-1,1-difluoromethanesulfonamide] | > 10 | 0.01 to 1
> 10 | > 10 | < 0.001 | Cc1ccc(-c2cnc(N)c3c(-c4ccc(NS(=O)(=O)C(F)F)c(O[C@@H](C)c5ccc(F)cc5)c4)nn(C)c23)cn1 [Compound 26, (S)-N-(4-(4-amino-1-methyl-7-(6-methylpyridin-3-yl)-1H-pyrazolo[4,3-c]pyridin-3-yl)-2-(1-(4-fluorophenyl)ethoxy)phenyl)-1,1-difluoromethanesulfonamide] | > 10 | 0.01 to 1
> 10 | > 10 | < 0.001 | CC(C)n1cc(-c2cnc(N)c3c(-c4ccc(NS(=O)(=O)C(F)F)c(O[C@@H](C)c5ccc(F)cc5)c4)nn(C)c23)cn1 [Compound 31, (S)-N-(4-(4-amino-7-(1-isopropyl-1H-pyrazol-4-yl)-1-methyl-1H-pyrazolo[4,3-c]pyridin-3-yl)-2-(1-(4-fluorophenyl)ethoxy)phenyl)-1,1-difluoromethanesulfonamide] | > 10 | < 0.01
> 10 | > 10 | < 0.001 | C[C@H](Oc1cc(-c2cnn3c(-c4cnn(C)c4)cnc(N)c23)ccc1NS(=O)(=O)C(F)F)c1ccc(F)cc1 [Compound 35, (S)-N-(4-(4-amino-7-(1-methyl-1H-pyrazol-4-yl)pyrazolo[1,5-a]pyrazin-3-yl)-2-(1-(4-fluorophenyl)ethoxy)phenyl)-1,1-difluoromethanesulfonamide] | > 10 | 0.01 to 1
> 10 | > 10 | < 0.001 | C[C@H](Oc1cc(-c2cnn3c(-c4cnn(C5CCOCC5)c4)cnc(N)c23)ccc1NS(=O)(=O)C(F)F)c1ccc(F)cc1 [Compound 36, (S)-N-(4-(4-amino-7-(1-(tetrahydro-2H-pyran-4-yl)-1H-pyrazol-4-yl)pyrazolo[1,5-a]pyrazin-3-yl)-2-(1-(4-fluorophenyl)ethoxy)phenyl)-1,1-difluoromethanesulfonamide] | > 10 | < 0.01
